Results published in patent publication US20130337579A1, “Methods for Determining Protein Ligand Binding” (UNIVERSITY OF MARYLAND, COLLEGE PARK, priority 2010, published 2013).

Columns and labels:
[1] = biological target: T1, Alg44PilZ (Pseudomonas aeruginosa, UniProt Q9HY69); conditions: previously determined by ITC (Merighi 2007); cited from earlier work
T1 construct: Previous studies of the dissociation rate of cdiGMP from Alg44PilZ

[2] = tested on: whole-cell lysates of P. aeruginosa strains; test: DRaCALA analysis of cdiGMP binding by whole-cell lysates of P. aeruginosa strains
[3] = tested on: PelD; test: DRaCALA of whole cell lysates of E. coli BL21(DE3) expressing PelD; assay type: binding, P. aeruginosa; conditions: PelD with or without MBP tag
Protocol: FIG. 10. Binding of cdiGMP to whole cell lysates expressing soluble or insoluble cdiGMP binding proteins. (A) BL21(DE3) cells expressing the indicated proteins were analyzed by PAGE and coomassie staining of whole cell (W) and soluble (S) fractions. Arrows indicate the overexpressed protein of the correct molecular weight in whole cell lysates. Molecular weights of proteins are indicated on the left in kilodaltons. (B) Spots of BL21 cells overexpressing the indicated proteins were assayed for cdiGMP binding by DRaCALA. (C) Quantification of the data shown in (B). (D) Binding of ^32P-cdiGMP to various dilutions of lysates of BL21(DE3) cells expressing the indicated proteins.
A major limitation of most biochemical assays is the requirement for purified protein. We asked whether DRaCALA could be applied to crude extracts to overcome this limitation. Alg44PilZ binding to cdiGMP requires a number of conserved residues, including R17, R21, D44 and S46, in the PilZ domain of the protein. E. coli BL21(DE3) expressing Alg44PilZ and variants with R21A, D44A, S46A, and R17A/R21A substitutions were lysed and tested for binding to cdiGMP using DRaCALA. […] A significant difference between the bound fractions for cdiGMP or GTP competition experiments was detected for the wild-type Alg44PilZ, but not for the PilZ domain mutants (FIGS. 4A and 4B). […]

T1 sequence (Q9HY69 16-116): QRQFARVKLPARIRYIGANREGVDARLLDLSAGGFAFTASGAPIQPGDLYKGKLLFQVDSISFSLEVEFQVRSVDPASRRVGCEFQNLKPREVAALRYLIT

In the case of Nc1nc2c(ncn2[C@@H]2O[C@@H]3CO[P@](=O)(O)O[C@H]4[C@@H](O)[C@H](n5cnc6c(=O)[nH]c(N)nc65)O[C@@H]4CO[P@](=O)(O)O[C@H]3[C@H]2O)c(=O)[nH]1 [cdiGMP, cyclic-di-GMP], the Kd [1] is listed as 5.6 µM, the BSp ([2]; PA14 overexpressing diguanylate cyclase WspR) is listed as 1.19 and the BSp ([2]; PA14 overexpressing phosphodiesterase RocR) is listed as 3.51. The BSp ([2]; PA14ΔpelD overexpressing RocR) was 2.70, the “average BSp of strain groups isolated from different sources” value ([2]; all groups) was “greater than 1.48” and the “Average Bc” value ([2]; average over all P. aeruginosa lysates of the table) was 0.185. The BSp ([2]; wild-type PA14 extract) was 1.27 and the “specific sequestration by whole cell extracts with soluble or insoluble protein” value [3] was “specifically sequester”.
